Columns and labels:
Assay in all cases: relative viability (nuclei count vs DMSO), 5 days (fraction); higher = more cells survive
[1] = compound: CN1CCC(CNc2ccc3ncc(-c4cccc(OC(F)(F)F)c4)n3n2)CC1 [SGI-1776] + CC1(C)CCC(c2ccc(Cl)cc2)=C(CN2CCN(c3ccc(C(=O)NS(=O)(=O)c4ccc(N[C@H](CCN5CCOCC5)CSc5ccccc5)c(S(=O)(=O)C(F)(F)F)c4)cc3)CC2)C1 [Navitoclax] (partner 0.5 µM)
Procedure, shortened: (§1)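 Relative viability is defined as nuclei in treated wells over nuclei in vehicle wells. Duplicate plates were run and medians reported. Lung cancer cell lines in 1536-well plates were dosed by pin tool one day after seeding, with one drug or with a fixed anchor-drug dose plus five library-drug doses (not always all listed) in √10 steps, and nuclei were counted after 5 days.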

[2] = compound: Nc1ccccc1NC(=O)c1ccc(CNC(=O)OCc2cccnc2)cc1 [Entinostat] + CCNC(=O)c1noc(-c2cc(C(C)C)c(O)cc2O)c1-c1ccc(CN2CCOCC2)cc1 [Luminespib] (partner 0.01 µM)
Procedure, shortened: as §1

[3] = compound: Nc1ccccc1NC(=O)c1ccc(CNC(=O)OCc2cccnc2)cc1 [Entinostat] + CC(=O)c1c(C)c2cnc(Nc3ccc(N4CCNCC4)cn3)nc2n(C2CCCC2)c1=O [Palbociclib] (partner 0.5 µM)
Procedure, shortened: as §1

[4] = compound: Nc1ccccc1NC(=O)c1ccc(CNC(=O)OCc2cccnc2)cc1 [Entinostat] + CS(=O)(=O)CCNCc1ccc(-c2ccc3ncnc(Nc4ccc(OCc5cccc(F)c5)c(Cl)c4)c3c2)o1 [Lapatinib] (partner 2 µM)
Procedure, shortened: as §1

Cell Line | relative viability ([1]; first compound 0.08 µM) | relative viability ([1]; first compound 0.8 µM) | relative viability ([1]; first compound 2.53 µM) | relative viability ([1]; first compound 8 µM) | relative viability ([2]; first compound 0.02 µM) | relative viability ([2]; first compound 0.06325 µM) | relative viability ([2]; first compound 0.2 µM) | relative viability ([2]; first compound 0.6325 µM) | relative viability ([2]; first compound 2 µM) | relative viability ([3]; first compound 0.02 µM) | relative viability ([3]; first compound 0.06325 µM) | relative viability ([3]; first compound 0.2 µM) | relative viability ([3]; first compound 0.6325 µM) | relative viability ([3]; first compound 2 µM) | relative viability ([4]; first compound 0.02 µM) | relative viability ([4]; first compound 0.06325 µM) | relative viability ([4]; first compound 0.2 µM) | relative viability ([4]; first compound 0.6325 µM) | relative viability ([4]; first compound 2 µM)
NCI-H1792 | 0.614 | 0.72 | 0.654 | 0.479 | 0.5 | 0.519 | 0.362 | 0.392 | 0.469 | 0.709 | 0.745 | 0.723 | 0.626 | 0.523 | 0.953 | 0.96 | 0.836 | 0.767 | 0.513
NCI-H1793 | 0.358 | 0.52 | 0.482 | 0.31 | 0.224 | 0.157 | 0.177 | 0.171 | 0.161 | 0.329 | 0.321 | 0.263 | 0.248 | 0.189 | 0.695 | 1.07 | 0.617 | 0.393 | 0.328
NCI-H1915 | 0.795 | 0.802 | 0.793 | 0.781 | 0.737 | 0.722 | 0.821 | 0.567 | 0.373 | 0.51 | 0.494 | 0.43 | 0.383 | 0.208 | 0.985 | 1.05 | 1.01 | 0.633 | 0.315
NCI-H1944 | 1.03 | 1.09 | 1.07 | 1.07 | 0.73 | 0.625 | 0.397 | 0.329 | 0.183 | 0.301 | 0.286 | 0.234 | 0.223 | 0.176 | 0.851 | 0.768 | 0.787 | 0.354 | 0.271
NCI-H1975 | 1.21 | 1.06 | 0.883 | 0.817 | 0.238 | 0.209 | 0.217 | 0.199 | 0.13 | 0.488 | 0.378 | 0.346 | 0.181 | 0.132 | 0.812 | 0.801 | 0.669 | 0.274 | 0.189
NCI-H1993 | 0.95 | 0.945 | 0.832 | 0.56 | 0.968 | 1.08 | 0.925 | 0.771 | 0.275 | 0.653 | 0.667 | 0.725 | 0.642 | 0.273 | 0.749 | 0.911 | 0.867 | 0.728 | 0.69
NCI-H2009 | 1.15 | 1.18 | 1.19 | 1.08 | 1.05 | 0.967 | 0.974 | 0.771 | 0.762 | 0.189 | 0.301 | 0.187 | 0.253 | 0.214 | 0.954 | 0.984 | 0.827 | 0.685 | 0.396
NCI-H2023 | 1.04 | 1.04 | 0.998 | 0.979 | 0.648 | 0.528 | 0.313 | 0.111 | 0.0763 | 0.319 | 0.312 | 0.258 | 0.151 | 0.0658 | 0.633 | 0.585 | 0.261 | 0.129 | 0.0771
NCI-H2085 | 1.18 | 1.07 | 1.2 | 0.945 | 0.414 | 0.426 | 0.384 | 0.278 | 0.251 | 0.438 | 0.441 | 0.43 | 0.4 | 0.421 | 0.748 | 0.825 | 0.744 | 0.545 | 0.443
NCI-H2087 | 0.963 | 1.04 | 1.04 | 0.861 | 0.157 | 0.125 | 0.18 | 0.127 | 0.143 | 0.252 | 0.209 | 0.174 | 0.0887 | 0.0971 | 1.03 | 0.792 | 0.861 | 0.536 | 0.54
NCI-H2126 | 0.809 | 0.877 | 0.846 | 0.743 | 0.815 | 0.906 | 0.894 | 0.766 | 0.462 | 0.316 | 0.317 | 0.351 | 0.321 | 0.334 | 0.794 | 0.78 | 0.759 | 0.421 | 0.385
NCI-H2170 | 0.561 | 0.678 | 0.581 | 0.56 | 0.778 | 0.654 | 0.643 | 0.47 | 0.329 | 0.387 | 0.362 | 0.314 | 0.252 | 0.216 | 0.289 | 0.3 | 0.304 | 0.244 | 0.216
NCI-H2228 | 0.843 | 0.817 | 0.658 | 0.51 | 0.187 | 0.132 | 0.135 | 0.184 | 0.102 | 0.617 | 0.747 | 0.691 | 0.35 | 0.244 | 1.12 | 1.02 | 1.08 | 0.457 | 0.315
NCI-H2347 | 0.886 | 0.787 | 0.808 | 0.673 | 0.337 | 0.378 | 0.348 | 0.193 | 0.081 | 0.48 | 0.387 | 0.361 | 0.339 | 0.261 | 1.05 | 0.983 | 0.784 | 0.502 | 0.369
NCI-H2405 | 0.823 | 0.804 | 0.779 | 0.452 | 0.789 | 0.767 | 0.944 | 0.808 | 0.597 | 0.515 | 0.531 | 0.571 | 0.532 | 0.453 | 1.16 | 1.42 | 1.08 | 1.04 | 0.625
NCI-H3122 | 1.01 | 1.03 | 1.03 | 1.04 | 0.129 | 0.141 | 0.102 | 0.0843 | 0.073 | 0.191 | 0.217 | 0.208 | 0.181 | 0.187 | 1.02 | 1.07 | 1.09 | 0.917 | 0.893
PC-3 [JPC-3] | 0.704 | 0.767 | 0.862 | 0.699 | 0.726 | 0.668 | 0.5 | 0.51 | 0.365 | 0.529 | 0.47 | 0.486 | 0.442 | 0.378 | 0.448 | 0.451 | 0.397 | 0.348 | 0.302

Reference: the supplement of paper PMC10307832
